Assays:
renin in human plasma = target: T1, renin in human plasma (Homo sapiens, UniProt P00797); assay: Inhibition of renin in human plasma (enzymatic in vitro assay, Ang I detected by EIA); assay type: biochemical; conditions: human plasma from 10 normal donors; human recombinant renin 3 pM; 37° C. for 2 h
T1 construct: host or cells: recombinant enzyme added to human plasma from 10 normal donors
T1 sequence (P00797 67-406): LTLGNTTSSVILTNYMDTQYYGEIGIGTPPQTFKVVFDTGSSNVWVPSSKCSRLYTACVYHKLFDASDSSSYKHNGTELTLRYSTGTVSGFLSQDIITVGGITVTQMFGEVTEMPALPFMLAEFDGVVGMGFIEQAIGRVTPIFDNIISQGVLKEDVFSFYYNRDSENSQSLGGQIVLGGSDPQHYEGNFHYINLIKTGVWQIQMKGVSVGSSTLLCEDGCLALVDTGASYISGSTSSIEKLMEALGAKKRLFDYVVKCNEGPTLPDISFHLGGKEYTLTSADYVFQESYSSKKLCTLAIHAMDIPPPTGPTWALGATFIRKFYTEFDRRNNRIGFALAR
Experimental: Inhibition of Renin in Human Plasma
The enzymatic in vitro assay was performed in 384-well polypropylene plates (Nunc). The assay buffer consisted of PBS (Gibco BRL) including 1 mM EDTA and 0.1% BSA. The reaction mixture was composed of 80 μL per well of human plasma, enzyme, Ang I-antibodies mix and 5 μL of renin inhibitors in DMSO. The human plasma mix was premixed at 4° C. and consists of • human plasma from 10 normal donors • human recombinant renin (3 pM) • Ang I-antibodies. The mixtures were then incubated at 37° C. for 2 h.
To determine the enzymatic activity and its inhibition, the accumulated Ang I was detected by an enzyme immunoassay (EIA) in 384-well plates (Nunc). 10 μL of the reaction mixture or standards were transferred to immuno plates which were previously coated with a covalent complex of Ang I and bovine serum albumin (Ang I-BSA). 70 μL assay buffer were added and the plates were incubated at 4° C. overnight. The plates were washed 3 times with PBS including 0.01% Tween 20, and then incubated for 2 h at RT with an anti rabbit-peroxidase coupled antibody (WA 934, Amersham).

human recombinant renin = target: T2, human recombinant renin (Homo sapiens, UniProt P00797); assay: Inhibition of human recombinant renin (enzymatic in vitro assay in buffer, Ang I detected by EIA); assay type: biochemical; conditions: assay buffer PBS, 1 mM EDTA, 0.1% BSA; human recombinant renin 40 pM; 37° C. for 3 h
T2 sequence (P00797 67-406): T1 sequence (P00797 67-406)
Experimental: Inhibition of Human Recombinant Renin
The enzymatic in vitro assay was performed in 384-well polypropylene plates (Nunc). The assay buffer consisted of PBS (Gibco BRL) including 1 mM EDTA and 0.1% BSA. The reaction mixture were composed of 47.5 μL per well of an enzyme mix and 2.5 μL of renin inhibitors in DMSO. The enzyme mix was premixed at 4° C. and consists of the following components: • human recombinant renin (40 pM) • synthetic human angiotensin(1-14) (0.5 μM) • hydroxyquinoline sulfate (1 mM) The mixtures were then incubated at 37° C. for 3 h. The enzyme reaction was stopped by placing the reaction plate on wet ice.
To determine the enzymatic activity and its inhibition, the accumulated Ang I was detected by an enzyme immunoassay (EIA) in 384-well plates (Nunc). 5 μL of the reaction mixture or standards were transferred to immuno plates which were previously coated with a covalent complex of Ang I and bovine serum albumin (Ang I-BSA). 75 μL of Ang I-antibodies in assay buffer above including 0.01% Tween 20 were added and the plates were incubated at 4° C. overnight.
An alternative protocol could be used by stopping the enzymatic reaction with 0.02N final concentration of HCl. 5 μL of the reaction mixture or standards were transferred to immuno plates and 75 μL of Ang I-antibodies in assay buffer above including 0.01% Tween 20 were added and the plates were incubate at RT for 4 h. […]

IC50 (renin in human plasma) [nM]	IC50 (human recombinant renin) [nM]	SMILES
6	0.022	COCCCc1cc(CN(C(=O)[C@H]2CNCC[C@@H]2c2ccc(OCCOc3c(Cl)cc(C)cc3Cl)nc2)C2CC2)cc(OCCOC)c1 [Example 2, (3R,4S)-N-Cyclopropyl-4-{6-[2-(2,6-dichloro-4-methylphenoxy)ethoxy]pyridin-3-yl}-N-[3-(2-methoxyethoxy)-5-(3-methoxypropyl)benzyl]piperidine-3-carboxamide]
2.6	0.036	COCCCc1cc(CN(C(=O)[C@H]2CNCC[C@@H]2c2ccc(OCCOc3c(Cl)cc(C)cc3Cl)cc2)C2CC2)cc(OC[C@@H]2C[C@H]2CO)c1 [Example 8]
